In patent US20140221361A1, “C-19 MODIFIED TRITERPENOIDS WITH HIV MATURATION INHIBITORY ACTIVITY” (priority 2013, published 2014):

Test system: recombinant NL4-3 virus (Renilla luciferase in nef, Gag P373S)
Test: HIV cell culture assay (luciferase reporter, MT-2 cells)
Type: cell-based, HIV-1
Settings: luciferase activity, serial dilutions of inhibitor
In short: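 MT-2 cells infected with recombinant NL4-3 carrying Renilla luciferase in place of part of nef and Gag P373S, virus made by 293T transfection. Infection ran 4-5 days with serial inhibitor dilutions. Antiviral activity read as luciferase activity (Dual Luciferase reagents mixed with lysis buffer).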

[1] = Renilla, NL43, MT-2 cells infected for 4-5 days with NLRluc recombinants
[2] = MT-2 cells infected for 4-5 days with NLRluc recombinants

Row | Compound | EC50 [1] | EC50 [2]
1 | C=C(CN(C)C(=O)CCC(=O)OC)[C@@H]1CC[C@]2(C(=O)NCCN(C)C)CC[C@]3(C)[C@H](CC[C@@H]4[C@@]5(C)CC=C(c6ccc(C(=O)O)cc6)C(C)(C)[C@@H]5CC[C@]43C)[C@@H]12 [Example 18, 4-((1R,3aS,5aR,5bR,7aR,11aS,11bR,13aR,13bS)-3a-(2-(dimethylamino)ethylcarbamoyl)-1-(3-(4-methoxy-N-methyl-4-oxobutanamido)prop-1-en-2-yl)-5a,5b,8,8,11a-pentamethyl-2,3,3a,4,5,5a,5b,6,7,7a,8,11,11a,11b,12,13,13a,13b-octadecahydro-1H-cyclopenta[a]chrysen-9-yl)benzoic acid] | 1.87 nM | –
2 | CC(=CC(=O)O)[C@@H]1CC[C@]2(C(=O)NCCN(C)C)CC[C@]3(C)[C@H](CC[C@@H]4[C@@]5(C)CC[C@H](c6ccc(C(=O)O)cc6)C(C)(C)[C@@H]5CC[C@]43C)[C@@H]12 [Example 19, 4-((1R,3aS,5aR,5bR,7aS,9S,11aS,11bR,13aR,13bR)-1-(1-carboxyprop-1-en-2-yl)-3a-((2-(dimethylamino)ethyl)carbamoyl)-5a,5b,8,8,11a-pentamethylicosahydro-1H-cyclopenta[a]chrysen-9-yl)benzoic acid] | 20 nM | –
3 | CC(C)(O)[C@@H]1CC[C@]2(NCCN3CCS(=O)(=O)CC3)CC[C@]3(C)[C@H](CC[C@@H]4[C@@]5(C)CC=C(C6=CCC(C(=O)O)CC6)C(C)(C)[C@@H]5CC[C@]43C)[C@@H]12 (stereo partly drawn) [Example 22, 4-((1R,3aS,5aR,5bR,7aR,11aS,11bR,13aR,13bS)-3a-((2-(1,1-dioxidothiomorpholino)ethyl)amino)-1-(2-hydroxypropan-2-yl)-5a,5b,8,8,11a-pentamethyl-2,3,3a,4,5,5a,5b,6,7,7a,8,11,11a,11b,12,13,13a,13b-octadecahydro-1H-cyclopenta[a]chrysen-9-yl)cyclohex-3-enecarboxylic acid] | 0.519 nM | –
4 | CC(C)(O)[C@@H]1CC[C@]2(NCCN3CC4CC3CO4)CC[C@]3(C)[C@H](CC[C@@H]4[C@@]5(C)CC=C(C6=CCC(C(=O)O)CC6)C(C)(C)[C@@H]5CC[C@]43C)[C@@H]12 (stereo partly drawn) [Example 23, 4-((1R,3aS,5aR,5bR,7aR,11aS,11bR,13aR,13bS)-3a-((2-(2-oxa-5-azabicyclo[2.2.1]heptan-5-yl)ethyl)amino)-1-(2-hydroxypropan-2-yl)-5a,5b,8,8,11a-pentamethyl-2,3,3a,4,5,5a,5b,6,7,7a,8,11,11a,11b,12,13,13a,13b-octadecahydro-1H-cyclopenta[a]chrysen-9-yl)cyclohex-3-enecarboxylic acid] | 0.779 nM | –
5 | C=C(CO)[C@@H]1CC[C@]2(NC(=O)OC(C)(C)C)CC[C@]3(C)[C@H](CC[C@@H]4[C@@]5(C)CC=C(c6ccc(C(=O)O)c(F)c6)C(C)(C)[C@@H]5CC[C@]43C)[C@@H]12 [Example A1, 4-((1R,3aS,5aR,5bR,7aR,11aS,11bR,13aR,13bS)-3a-((tert-butoxycarbonyl)amino)-1-(3-hydroxyprop-1-en-2-yl)-5a,5b,8,8,11a-pentamethyl-2,3,3a,4,5,5a,5b,6,7,7a,8,11,11a,11b,12,13,13a,13b-octadecahydro-1H-cyclopenta[a]chrysen-9-yl)-2-fluorobenzoic acid] | 20 nM | –
6 | C=C(CO)[C@@H]1CC[C@]2(N)CC[C@]3(C)[C@H](CC[C@@H]4[C@@]5(C)CC=C(c6ccc(C(=O)O)c(F)c6)C(C)(C)[C@@H]5CC[C@]43C)[C@@H]12 [Example A2] | 10 nM | –
7 | CC1([C@@H]2CC[C@]3(NCCN4CCS(=O)(=O)CC4)CC[C@]4(C)[C@H](CC[C@@H]5[C@@]6(C)CC=C(c7ccc(C(=O)O)c(F)c7)C(C)(C)[C@@H]6CC[C@]54C)[C@@H]23)CO1 (stereo partly drawn) [Example A3, 4-((1R,3aS,5aR,5bR,7aR,11aS,11bR,13aR,13bS)-3a-((2-(1,1-dioxidothiomorpholino)ethyl)amino)-5a,5b,8,8,11a-pentamethyl-1-(2-methyloxiran-2-yl)-2,3,3a,4,5,5a,5b,6,7,7a,8,11,11a,11b,12,13,13a,13b-octadecahydro-1H-cyclopenta[a]chrysen-9-yl)-2-fluorobenzoic acid] | 10 nM | –
8 | CC(C(=O)O)[C@@H]1CC[C@]2(NCCN3CCS(=O)(=O)CC3)CC[C@]3(C)[C@H](CC[C@@H]4[C@@]5(C)CC=C(c6ccc(C(=O)O)c(F)c6)C(C)(C)[C@@H]5CC[C@]43C)[C@@H]12 (stereo partly drawn) [Example A6, 4-((1R,3aS,5aR,5bR,7aR,11aS,11bR,13aR,13bR)-1-(1-carboxyethyl)-3a-((2-(1,1-dioxidothiomorpholino)ethyl)amino)-5a,5b,8,8,11a-pentamethyl-2,3,3a,4,5,5a,5b,6,7,7a,8,11,11a,11b,12,13,13a,13b-octadecahydro-1H-cyclopenta[a]chrysen-9-yl)-2-fluorobenzoic acid] | – | 390 nM
9 | CC(C(=O)O)[C@@H]1CC[C@]2(NCCN3CCS(=O)(=O)CC3)CC[C@]3(C)[C@H](CC[C@@H]4[C@@]5(C)CC=C(c6ccc(C(=O)O)c(F)c6)C(C)(C)[C@@H]5CC[C@]43C)[C@@H]12 (stereo partly drawn) [Example A7, 4-((1R,3aS,5aR,5bR,7aR,11aS,11bR,13aR,13bR)-1-(1-carboxyethyl)-3a-((2-(1,1-dioxidothiomorpholino)ethyl)amino)-5a,5b,8,8,11a-pentamethyl-2,3,3a,4,5,5a,5b,6,7,7a,8,11,11a,11b,12,13,13a,13b-octadecahydro-1H-cyclopenta[a]chrysen-9-yl)-2-fluorobenzoic acid] | – | 110 nM
10 | CC(C)(C)OC(=O)N[C@@H]1CC[C@]2(C(=O)O)CC[C@]3(C)[C@H](CC[C@@H]4[C@@]5(C)CC=C(C6=CCC(C(=O)O)CC6)C(C)(C)[C@@H]5CC[C@]43C)[C@@H]12 (stereo partly drawn) [Example A8, (1R,3aR,5aR,5bR,7aR,11aS,11bR,13aR,13bR)-1-((tert-butoxycarbonyl)amino)-9-(4-carboxycyclohex-1-en-1-yl)-5a,5b,8,8,11a-pentamethyl-2,3,3a,4,5,5a,5b,6,7,7a,8,11,11a,11b,12,13,13a,13b-octadecahydro-1H-cyclopenta[a]chrysene-3a-carboxylic acid] | 6.56 nM | –
11 | CN(C)CCNC(=O)[C@]12CC[C@@H](NC(=O)OC(C)(C)C)[C@@H]1[C@H]1CC[C@@H]3[C@@]4(C)CC=C(C5=CCC(C(=O)O)CC5)C(C)(C)[C@@H]4CC[C@@]3(C)[C@]1(C)CC2 (stereo partly drawn) [Example A9, 4-((1R,3aR,5aR,5bR,7aR,11aS,11bR,13aR,13bR)-1-((tert-butoxycarbonyl)amino)-3a-((2-(dimethylamino)ethyl)carbamoyl)-5a,5b,8,8,11a-pentamethyl-2,3,3a,4,5,5a,5b,6,7,7a,8,11,11a,11b,12,13,13a,13b-octadecahydro-1H-cyclopenta[a]chrysen-9-yl)cyclohex-3-enecarboxylic acid] | 1.15 nM | –
12 | CC(C)(O)[C@@H]1CC[C@]2(NCCN3CCS(=O)(=O)CC3)CC[C@]3(C)[C@H](CC[C@@H]4[C@@]5(C)CC=C(c6ccc(C(=O)O)cc6)C(C)(C)[C@@H]5CC[C@]43C)[C@@H]12 [Example B3, 4-((1R,3aS,5aR,5bR,7aR,11aS,11bR,13aR,13bS)-3a-((2-(1,1-dioxidothiomorpholino)ethyl)amino)-1-(2-hydroxypropan-2-yl)-5a,5b,8,8,11a-pentamethyl-2,3,3a,4,5,5a,5b,6,7,7a,8,11,11a,11b,12,13,13a,13b-octadecahydro-1H-cyclopenta[a]chrysen-9-yl)benzoic acid] | 1.3 nM | –
13 | COC(C)(C)[C@@H]1CC[C@]2(NCCN3CCS(=O)(=O)CC3)CC[C@]3(C)[C@H](CC[C@@H]4[C@@]5(C)CC=C(c6ccc(C(=O)O)cc6)C(C)(C)[C@@H]5CC[C@]43C)[C@@H]12 [Example B4, 4-((1R,3aS,5aR,5bR,7aR,11aS,11bR,13aR,13bS)-3a-((2-(1,1-dioxidothiomorpholino)ethyl)amino)-1-(2-methoxypropan-2-yl)-5a,5b,8,8,11a-pentamethyl-2,3,3a,4,5,5a,5b,6,7,7a,8,11,11a,11b,12,13,13a,13b-octadecahydro-1H-cyclopenta[a]chrysen-9-yl)benzoic acid] | 2.06 nM | –
14 | COCC(C)[C@@H]1CC[C@]2(NCCN3CCS(=O)(=O)CC3)CC[C@]3(C)[C@H](CC[C@@H]4[C@@]5(C)CC=C(c6ccc(C(=O)O)cc6)C(C)(C)[C@@H]5CC[C@]43C)[C@@H]12 (stereo partly drawn) [Example B7, 4-((1R,3aS,5aR,5bR,7aR,11aS,11bR,13aR,13bR)-3a-((2-(1,1-dioxidothiomorpholino)ethyl)amino)-1-(1-methoxypropan-2-yl)-5a,5b,8,8,11a-pentamethyl-2,3,3a,4,5,5a,5b,6,7,7a,8,11,11a,11b,12,13,13a,13b-octadecahydro-1H-cyclopenta[a]chrysen-9-yl)benzoic acid] | 0.945 nM | –
15 | C/C=C1\CC[C@]2(NCCN3CCS(=O)(=O)CC3)CC[C@]3(C)[C@H](CC[C@@H]4[C@@]5(C)CC=C(c6ccc(C(=O)O)cc6)C(C)(C)[C@@H]5CC[C@]43C)[C@@H]12 [Example B13, 4-((3aS,5aR,5bR,7aR,11aS,11bR,13aR,13bS)-3a-((2-(1,1-dioxidothiomorpholino)ethyl)amino)-1-ethylidene-5a,5b,8,8,11a-pentamethyl-2,3,3a,4,5,5a,5b,6,7,7a,8,11,11a,11b,12,13,13a,13b-octadecahydro-1H-cyclopenta[a]chrysen-9-yl)benzoic acid] | 10 nM | –
16 | CC1(C)C(c2ccc(C(=O)O)cc2)=CC[C@]2(C)[C@H]3CC[C@@H]4[C@H]5[C@H](C(=O)O)CC[C@]5(NCCN5CCS(=O)(=O)CC5)CC[C@@]4(C)[C@]3(C)CC[C@@H]12 [Example B17, (1R,3aS,5aR,5bR,7aR,11aS,11bR,13aR,13bS)-9-(4-carboxyphenyl)-3a-((2-(1,1-dioxidothiomorpholino)ethyl)amino)-5a,5b,8,8,11a-pentamethyl-2,3,3a,4,5,5a,5b,6,7,7a,8,11,11a,11b,12,13,13a,13b-octadecahydro-1H-cyclopenta[a]chrysene-1-carboxylic acid] | 2070 nM | –
